Laboratory results published in patent publication US9278086B2, “Combination therapy and uses thereof for treatment and prevention of parasitic infection and disease” (The Royal Institution for the Advancement of …, priority 2010, dated 2016).
Marks after values point to notes of the source that are not given here.

Tested on: Plasmodium chabaudi
Test: 4-day test, P. chabaudi (10^7 pRBC i.v.) in pantetheinase-deficient A/J mice, blood parasitemia days 4 and 5
Format: in vivo
Details: for Inhibition of parasitemia Day 4 / Inhibition of parasitemia Day 5: days 0-3
Method: A/J and C57BL/6 (B6) mice were purchased from the Jackson Laboratories (Bar Harbor, Me.) and were housed at McGill University according to the guidelines of the Canadian Council on Animal Care. An LDH virus-free isolate of P. chabaudi AS was maintained by weekly passage in A/J mice. Mice were infected intravenously into the tail vein (i.v.) with 10^6 or 10^7 pRBC suspended in pyrogen-free saline. Following infection, the percentage of pRBC was determined daily on thin blood smears stained with Dif-Quik™ (Dade Behring, Newark, Del.), as described (Fortin A, et al. (2001) Proc Natl Acad Sci USA 98: 10793-10798).
Cysteamine hydrochloride (Sigma, Burlington ON) was prepared in PBS. Chloroquine hydrochloride, artesunate and dihydroartemisinin were provided by Dafra Pharmaceuticals; chloroquine was prepared in PBS, artesunate and DHA were prepared in 5% sodium bicarbonate and diluted in water to appropriate concentrations. All solutions were prepared fresh daily, filter sterilized and injections were performed intra-peritoneally (i.p) or subcutaneously (s.c.) for 4 days or according to treatment regimen. Mice were weighed prior to treatment to determine appropriate doses and injection volumes ranged from 100-400 μL per mouse. In the case of animals treated with two drugs, artemisinin derivatives were administered first (due to the short half life of cysteamine), followed by cysteamine 5-10 minutes later on alternate sides. Untreated control animals were injected with PBS alone.
Groups with normally distributed data points were compared using parametric unpaired t-tests, while groups with non-Gaussian distributions were compared using non-parametric Mann-Whitney tests. Survival differences were analyzed using the Log-Rank test. […] Standard error of percent inhibition was calculated from individual mice compared to the mean parasitemia level of the control group.
The effect of Cys on the potency and efficacy of the anti-malarial artemisinin derivatives was tested. […] Synergy (Tallarida R J (2001) J Pharmacol Exp Ther 298: 865-872) is defined as a total anti-malarial activity (reduction in blood parasitemia compared to untreated controls in a standard 4-day test) of the two compounds administered together being greater than the sum of the independent activities of the two compounds given alone. We tested combinations of Cys and either artesunate (ART) or dihydroartemisinin (DHA), the bioactive form of artemisinin. Pantetheinase-deficient mice were infected with P. chabaudi (10^7 pRBC, i.v.) and treated with Cys (170 mg/kg) and/or sub-optimal doses of ART (0.2 or 0.5 mg/kg) (FIG. 3A) or DHA (0.15 or 0.3 mg/kg) (FIG. 3B) from day 0-3 and parasitemia was monitored on days 4 and 5. […] Potentiation of the anti-malarial activity of ART (0.5 mg/kg) by Cys was also clearly evident in these C57BL/6 mice at both days 4 and 5 post-infection, with combined treatment causing a 65-71% reduction in parasitemia compared to PBS controls, greater than either compound tested alone (13-29%) (TABLE 1).
It was subsequently examined whether Cys potentiation of ART was dose dependent. Initially, Cys doses of 60, 100, 140 and 180 mg/kg were tested with a sub-optimal ART dose of 0.2 mg/kg. The drugs were administered from day 0-3 post infection, parasitemia was counted at day 4 and day 5 and the percent inhibition was calculated compared to PBS-treated controls (FIG. 4A). At 0.2 mg/kg, ART alone inhibits parasitemia by ˜20% (day 4) and 40% (day 5) while inhibition by Cys alone was partially dose dependent (varying between 10% and 25%). […] It was also assessed whether Cys could potentiate low doses of artesunate which, given alone, have no significant effect on parasitemia. In this experiment, Cys (170 mg/kg) was administered in combination, or not, with increasing doses of ART (0.05, 0.1, 0.2, 0.4 mg/kg) in the same 4-day experimental protocol.

[1] = A/J mice, DHA 0.15 mg/kg + cysteamine 170 mg/kg i.p.
[2] = A/J mice, DHA 0.3 mg/kg + cysteamine 170 mg/kg i.p.

## C[C@@H]1CCC2[C@@H](C)[C@H](O)O[C@@H]3O[C@]4(C)CCC1C23OO4 (stereo partly shown) [DHA, dihydroartemisinin]
A/J mice, Cys 170 mg/kg added to ART (0.2 or 0.5 mg/kg) or DHA (0.15 or 0.3 mg/kg)
  effect of addition of Cys on inhibition of parasitemia versus additive effect of the two compounds: synergistic effect
[1]
  Inhibition of parasitemia Day 4: 56* % PBS control
  Inhibition of parasitemia Day 5: 46* % PBS control
A/J mice, DHA 0.15 mg/kg alone
  Inhibition of parasitemia Day 4: 22 % PBS control
  Inhibition of parasitemia Day 5: 13 % PBS control
[2]
  Inhibition of parasitemia Day 4: 80 % PBS control
  Inhibition of parasitemia Day 5: 71* % PBS control
A/J mice, DHA 0.3 mg/kg alone
  Inhibition of parasitemia Day 4: 50 % PBS control
  Inhibition of parasitemia Day 5: 40 % PBS control
Mice receiving both Cys and ART/DHA, compared to PBS or only one compound
  symptoms of disease (ruffled fur, lethargy): fewer symptoms of disease
